Source: publication PMC7646549, “Novel piperidine derivatives as colchicine binding site inhibitors induce apoptosis and inhibit epithelial-mesenchymal transition against prostate cancer PC3 cells” (Journal of Enzyme Inhibition and Medicinal Chemistry, 2020)

Tested on: T1, tubulin (β-tubulin, colchicine binding site)
T1 construct: gene TUBB; with α-tubulin
Experiment: in vitro tubulin polymerisation assay; supported by EBI competition assay (β-tubulin adduct) in PC3 cells
Format: biochemical

Molecule `COc1ccc(CN(C(=O)CN2C(=O)CCCC2=O)c2cc(OC)c(OC)c(OC)c2)cc1` [17a, 2–(2,6-Dioxopiperidin-1-yl)-N-(4-methoxybenzyl)-N-(3,4,5-trimethoxyphenyl) acetamide] has an IC50 of 2030 nM.
